From patent US4278681A, “Antibacterial amide compounds and means for using the same” (Warner-Lambert Co., priority 1980, dated 1981)
Values after ≈ are worked out from the molar mass of the structure shown.

Tests used:
Assay in all cases: Minimal Inhibitory Concentration by Microtitration, dilution in TSB
Type in all cases: cell-based
[1] = system: Enterobacter cloacae IMM-11; conditions: IMM11, TSB (Trypticase soy broth)
Source text: (§1) Minimal Inhibitory Concentration by Microtitration (μg/ml)
(§2) Dilution in TSB (Trypticase soy broth).

[2] = system: Klebsiella pneumoniae MGH-2; conditions: MGH2, TSB (Trypticase soy broth)
Source text: as §1, §2

[3] = system: Pseudomonas aeruginosa BRK 12-4-4; conditions: BRK1244, TSB (Trypticase soy broth)
Source text: as §1, §2

[4] = system: Pseudomonas aeruginosa UI-18; conditions: UI18, TSB (Trypticase soy broth)
Source text: as §1, §2

[5] = system: Serratia marcescens IMM-16; conditions: IMM16, TSB (Trypticase soy broth)
Source text: as §1, §2

SMILES	MIC [1] [µg/mL]	MIC [2] [µg/mL]	MIC [3] [µg/mL]	MIC [4] [µg/mL]	MIC [5] [µg/mL]
CC(=O)N[C@@H](C)C(=O)Nc1ccc(-c2ccc(C(=O)N[C@@H](C(=O)N[C@@H]3C(=O)N4[C@@H]3SC(C)(C)[C@@H]4C(=O)O)c3ccc(O)cc3)c(=O)[nH]2)cc1	1.6 (≈ 2.32 µM)	3.1 (≈ 4.49 µM)	1.6 (≈ 2.32 µM)	0.8 (≈ 1.16 µM)	3.1 (≈ 4.49 µM)
CC(=O)NCCCC(=O)Nc1ccc(-c2ccc(C(=O)N[C@@H](C(=O)N[C@@H]3C(=O)N4[C@@H]3SC(C)(C)[C@@H]4C(=O)O)c3ccc(O)cc3)c(=O)[nH]2)cc1	6.3 (≈ 8.94 µM)	3.1 (≈ 4.4 µM)	3.1 (≈ 4.4 µM)	1.6 (≈ 2.27 µM)	3.1 (≈ 4.4 µM)
CC(=O)N1CCC[C@H]1C(=O)Nc1ccc(-c2ccc(C(=O)N[C@@H](C(=O)N[C@@H]3C(=O)N4[C@@H]3SC(C)(C)[C@@H]4C(=O)O)c3ccc(O)cc3)c(=O)[nH]2)cc1	6.3 (≈ 8.79 µM)	12.5 (≈ 17.4 µM)	1.6 (≈ 2.23 µM)	1.6 (≈ 2.23 µM)	6.3 (≈ 8.79 µM)
CC(=O)N[C@@H](CCC(N)=O)C(=O)Nc1ccc(-c2ccc(C(=O)N[C@@H](C(=O)N[C@@H]3C(=O)N4[C@@H]3SC(C)(C)[C@@H]4C(=O)O)c3ccc(O)cc3)c(=O)[nH]2)cc1	3.1 (≈ 4.15 µM)	12.5 (≈ 16.7 µM)	3.1 (≈ 4.15 µM)	1.6 (≈ 2.14 µM)	3.1 (≈ 4.15 µM)
CC(=O)N1CC(O)C[C@H]1C(=O)Nc1ccc(-c2ccc(C(=O)N[C@@H](C(=O)N[C@@H]3C(=O)N4[C@@H]3SC(C)(C)[C@@H]4C(=O)O)c3ccc(O)cc3)c(=O)[nH]2)cc1 (some centres unmarked)	3.1 (≈ 4.23 µM)	12.5 (≈ 17.1 µM)	3.1 (≈ 4.23 µM)	1.6 (≈ 2.18 µM)	6.3 (≈ 8.6 µM)
C[C@H](NC=O)C(=O)Nc1ccc(-c2ccc(C(=O)N[C@@H](C(=O)N[C@@H]3C(=O)N4[C@@H]3SC(C)(C)[C@@H]4C(=O)O)c3ccc(O)cc3)c(=O)[nH]2)cc1	3.1 (≈ 4.58 µM)	6.3 (≈ 9.31 µM)	1.6 (≈ 2.36 µM)	1.6 (≈ 2.36 µM)	3.1 (≈ 4.58 µM)
CC(=O)N[C@@H](C)C(=O)N[C@@H](C)C(=O)Nc1ccc(-c2ccc(C(=O)N[C@@H](C(=O)N[C@@H]3C(=O)N4[C@@H]3SC(C)(C)[C@@H]4C(=O)O)c3ccc(O)cc3)c(=O)[nH]2)cc1	12.5 (≈ 16.4 µM)	25 (≈ 32.8 µM)	6.3 (≈ 8.27 µM)	3.1 (≈ 4.07 µM)	6.3 (≈ 8.27 µM)
CC1(C)S[C@@H]2[C@H](NC(=O)[C@H](NC(=O)c3ccc(-c4ccc(NC(=O)[C@@H]5CCC(=O)N5)cc4)[nH]c3=O)c3ccc(O)cc3)C(=O)N2[C@H]1C(=O)O	1.6 (≈ 2.32 µM)	6.3 (≈ 9.15 µM)	1.6 (≈ 2.32 µM)	3.1 (≈ 4.5 µM)	3.1 (≈ 4.5 µM)
C[C@H](NC(N)=O)C(=O)Nc1ccc(-c2ccc(C(=O)N[C@@H](C(=O)N[C@@H]3C(=O)N4[C@@H]3SC(C)(C)[C@@H]4C(=O)O)c3ccc(O)cc3)c(=O)[nH]2)cc1	6.3 (≈ 9.11 µM)	6.3 (≈ 9.11 µM)	1.6 (≈ 2.31 µM)	1.6 (≈ 2.31 µM)	3.1 (≈ 4.48 µM)
CC(=O)OC1C[C@@H](C(=O)Nc2ccc(-c3ccc(C(=O)N[C@@H](C(=O)N[C@@H]4C(=O)N5[C@@H]4SC(C)(C)[C@@H]5C(=O)O)c4ccc(O)cc4)c(=O)[nH]3)cc2)N(C(C)=O)C1 (some centres unmarked)	6.3 (≈ 8.13 µM)	12.5 (≈ 16.1 µM)	1.6 (≈ 2.07 µM)	1.6 (≈ 2.07 µM)	6.3 (≈ 8.13 µM)
CC(=O)N1CC(=O)C[C@H]1C(=O)Nc1ccc(-c2ccc(C(=O)N[C@@H](C(=O)N[C@@H]3C(=O)N4[C@@H]3SC(C)(C)[C@@H]4C(=O)O)c3ccc(O)cc3)c(=O)[nH]2)cc1	12.5 (≈ 17.1 µM)	25 (≈ 34.2 µM)	6.3 (≈ 8.62 µM)	3.1 (≈ 4.24 µM)	12.5 (≈ 17.1 µM)
CC(=O)O[C@@H]1C[C@H](C(=O)Nc2ccc(-c3ccc(C(=O)N[C@@H](C(=O)N[C@@H]4C(=O)N5[C@@H]4SC(C)(C)[C@@H]5C(=O)O)c4ccc(O)cc4)c(=O)[nH]3)cc2)N(C(C)=O)C1	12.5 (≈ 16.1 µM)	25 (≈ 32.3 µM)	6.3 (≈ 8.13 µM)	3.1 (≈ 4 µM)	12.5 (≈ 16.1 µM)
COC1C[C@@H](C(=O)Nc2ccc(-c3ccc(C(=O)N[C@@H](C(=O)N[C@@H]4C(=O)N5[C@@H]4SC(C)(C)[C@@H]5C(=O)O)c4ccc(O)cc4)c(=O)[nH]3)cc2)N(C(C)=O)C1 (some centres unmarked)	12.5 (≈ 16.7 µM)	25 (≈ 33.5 µM)	6.3 (≈ 8.44 µM)	3.1 (≈ 4.15 µM)	12.5 (≈ 16.7 µM)
CC(=O)N1CC=CC1C(=O)Nc1ccc(-c2ccc(C(=O)N[C@@H](C(=O)N[C@@H]3C(=O)N4[C@@H]3SC(C)(C)[C@@H]4C(=O)O)c3ccc(O)cc3)c(=O)[nH]2)cc1 (some centres unmarked)	6.3 (≈ 8.81 µM)	12.5 (≈ 17.5 µM)	3.1 (≈ 4.34 µM)	3.1 (≈ 4.34 µM)	12.5 (≈ 17.5 µM)
CC(=O)N1CC(OC=O)C[C@H]1C(=O)Nc1ccc(-c2ccc(C(=O)N[C@@H](C(=O)N[C@@H]3C(=O)N4[C@@H]3SC(C)(C)[C@@H]4C(=O)O)c3ccc(O)cc3)c(=O)[nH]2)cc1 (some centres unmarked)	1.6 (≈ 2.1 µM)	6.3 (≈ 8.28 µM)	0.8 (≈ 1.05 µM)	0.8 (≈ 1.05 µM)	6.3 (≈ 8.28 µM)
CCC(=O)OC1C[C@@H](C(=O)Nc2ccc(-c3ccc(C(=O)N[C@@H](C(=O)N[C@@H]4C(=O)N5[C@@H]4SC(C)(C)[C@@H]5C(=O)O)c4ccc(O)cc4)c(=O)[nH]3)cc2)N(C(C)=O)C1 (some centres unmarked)	6.3 (≈ 7.99 µM)	12.5 (≈ 15.8 µM)	3.1 (≈ 3.93 µM)	1.6 (≈ 2.03 µM)	6.3 (≈ 7.99 µM)
CN1C(=O)CC[C@H]1C(=O)Nc1ccc(-c2ccc(C(=O)N[C@@H](C(=O)N[C@@H]3C(=O)N4[C@@H]3SC(C)(C)[C@@H]4C(=O)O)c3ccc(O)cc3)c(=O)[nH]2)cc1	3.1 (≈ 4.41 µM)	6.3 (≈ 8.96 µM)	1.6 (≈ 2.28 µM)	0.8 (≈ 1.14 µM)	6.3 (≈ 8.96 µM)
CC(=O)NCCCC[C@H](NC(C)=O)C(=O)Nc1ccc(-c2ccc(C(=O)N[C@@H](C(=O)N[C@@H]3C(=O)N4[C@@H]3SC(C)(C)[C@@H]4C(=O)O)c3ccc(O)cc3)c(=O)[nH]2)cc1	12.5 (≈ 15.8 µM)	25 (≈ 31.7 µM)	6.3 (≈ 7.98 µM)	6.3 (≈ 7.98 µM)	50 (≈ 63.3 µM)
CC1(C)S[C@@H]2[C@H](NC(=O)[C@H](NC(=O)c3ccc(-c4ccc(NC(=O)CN5CCCC5=O)cc4)[nH]c3=O)c3ccc(O)cc3)C(=O)N2[C@H]1C(=O)O	3.1 (≈ 4.41 µM)	6.3 (≈ 8.96 µM)	3.1 (≈ 4.41 µM)	3.1 (≈ 4.41 µM)	6.3 (≈ 8.96 µM)
